Assays:
[1] = test system: basement membrane structure directly under the epidermis; test: Transmission electron microscopy of artificial skin; type: cell-based, human; conditions: Example 1; 10 μM compound A, with or without 10 μg/ml aprotinin
Method: (§1) Collagen gel was obtained by preparing 10 ml of a human dermal fibroblasts (0.3-1×10^5 cell/ml)-suspended collagen solution (using I-AC collagen manufactured by Koken Co., Ltd.) on ice, followed by gelling the collagen in a 60 mm Petri dish at 37° C. The gel was then peeled from the bottom of the dish, the collagen gel was placed on metal, and a glass ring (12 mm inner diameter) was placed over the gel. A 0.4 ml portion of a human foreskin-derived epidermal keratinocyte (1×10^6/ml) suspension (KGM-DMEM (1:1) mixed medium containing 5% fetal bovine serum) was poured into the glass ring while avoiding leakage. The keratinocytes were allowed to adhere in a CO2 incubator overnight, and the ring was removed on the following day. The medium was filled in up to the border of the epidermal layer, and culturing was continued while exposing the epidermal layer to the air, to prepare a multilayered skin model with epidermis having a horny layer. […]

type VII collagen = test: Artificial skin culture, immunostaining with anti-type VII collagen antibody; type: cell-based, human; conditions: Example 1; culturing for 2 weeks; 10 μM compound A, 10 μg/ml aprotinin, 1 ng/ml interleukin-1β, 1 ng/ml TGF-α, 100 ng/ml PDGF; versus no-compound control
Method: as §1

`COc1ccc(S(=O)(=O)N(Cc2cccnc2)C(C(=O)NO)C(C)C)cc1.Cl` (centres unmarked) [compound A] was tested, and the “basement membrane structure by transmission electron microscope” value [1] was “induced formation of the basement membrane” and the “staining of type VII collagen directly under the basal keratinocytes” value (type VII collagen) was “weak but definite staining”.

— patent US20050089516A1, “Skin vitalizing composition for external use anti-aging preparation” (SHISEIDO COMPANY, LTD., priority 2002, published 2005)
